Key:
PPAR = PPAR transactivation assay (Cignal reporter, luciferase) induced by A2E; type: cell-based, pig; settings: compound 20 μM; A2E 20 μM; RPE cells
Protocol: (§1) Transactivation assays were performed as previously described. Briefly, RPE cells were plated in DMEM 2% FCS at a density of 6 × 10^4 cells/cm^2. The next day transfections using the Cignal Reporter Assay Kits for PPAR, RXR, AP-1, and NF-κB were performed with Lipofectamine and Plus Reagent in serum-free medium. Three hours after the transfection, A2E and/or BIO203, both at 20 μM, were added to the culture medium for 24 h. Luciferase activity was measured using the Dual-Luciferase Reporter Assay System and with a luminometer (Infinite M1000 from Tecan, Mannedorf, Switzerland). At least 3 independent transfections were performed in triplicate for each condition.

VEGF = VEGF mRNA expression induced by A2E (quantitative RT-PCR); type: cell-based, pig; settings: BIO203 20 mM (so in the source); A2E 20 μM; porcine RPE cells; p < 0.001
Protocol: (§2) RPE cells were obtained from pig eyes, as previously described. RPE cells were seeded on a 96-well plate at a density of 1.5 × 10^5 cells/cm^2 in DMEM 2% FCS. BIO201, BIO203, or its pure enantiomers were added in increasing concentrations to the culture medium 48 h before illumination. A2E was added to the medium at a final concentration of 30 μM, and 19 h later, blue-light illumination was performed for 50 min using a 96 blue-led device (Durand, St Clair de la Tour, France) emitting at 470 nm (1440 mcd, 8.6 mA). Just before illumination, the culture medium was replaced by a modified DMEM without any photosensitizer and with 2% FCS. Twenty-four hours after blue-light irradiation, all cell nuclei were stained with Hoechst 33342, and nuclei of dead cells with ethidium homodimer 2, fixed with paraformaldehyde (4% in PBS, 10 min) and 9 pictures per well were captured using a fluorescence microscope (Nikon TiE) equipped with a CoolSNAP HQ2 camera and driven by Metamorph Premier On-Line program. Quantification of live cells was performed using Metamorph Premier Off-Line and a homemade program by subtraction of dead cells from all cells. For cytokines mRNA analysis, RPE cells were seeded in 24-well plates and left untreated or treated with A2E or BIO203 alone or A2E plus BIO203. […]

AP-1 = AP-1 transactivation assay induced by A2E; type: cell-based, pig; settings: compound 20 μM; A2E 20 μM
Protocol: as §1

IL-6 [1] = assay: IL-6 mRNA expression induced by A2E (quantitative RT-PCR); type: cell-based, pig
Protocol: as §2

Abca4−/− Rdh8−/− mice = assay: A2E quantification in eyes of Abca4−/− Rdh8−/− mice (HPLC-MS/MS); type: in vivo, mouse; settings: 6 months
Excerpt: To test the preventive/curative action of oral administration of BIO203 against retinal neurodegeneration, a total of 27 Pigmented Abca4^−/− Rdh8^−/− mice carrying the Rpe65-Leu450 mutation and the rd8 mutation in the Crb1 gene from Case Western Reserve University of eleven to twelve months of age were used. Three groups of 9 males received control chow (Teklad Custom Research Diet 2016© pellets) or chow containing LD-BIO203 or HD-BIO203 orally for 6 months. After 6 months of complementation, ERG was measured in both eyes. In the control group, two mice died during the period of complementation and one mouse during ERG measurement. In the HD-BIO203 group, one mouse died before the end of complementation, and 3 mice died just after anesthesia. All the mice that received LD-BIO203 were alive until the end of the complementation. One of them died during the photopic ERG measurement. Blood was collected by submandibular puncture in all mice before being euthanized. In each group, half of the eyes were removed for A2E and BIO203 measurements, and half of the eyes were used for histological analyses and photoreceptor layer quantification.
A2E quantification in eyes was performed using the HPLC-MS/MS method, which has been described previously.

IL-8 = test system: IL-8; parameters: method as in PMID 34544906; settings: norbixin at 20 mM (so in the source); cited from earlier work
[2] = test system: albino rats exposed to blue-light-induced photoreceptor degeneration; parameters: method as in PMID 27992460; settings: IP; cited from earlier work
NF-κB = test system: NF-κB; parameters: method as in PMID 34544906; settings: cited from earlier work
IL-6 [3] = test system: IL-6; parameters: method as in PMID 34544906; settings: norbixin at 20 mM (so in the source); cited from earlier work

Structure (SMILES)	inhibition of PPAR transactivation induced by A2E (PPAR)	change of VEGF mRNA expression induced by A2E (VEGF) [%]	inhibition of AP1 transactivation induced by A2E (AP-1)	change of IL-6 mRNA expression induced by A2E (IL-6 [1]; BIO203 20 mM (so in the source), A2E 20 μM, porcine RPE cells, p < 0.001) [%]	effect on IL-6 expression on its own (without A2E) (IL-6 [1]; BIO203 alone, not statistically significant)	change of A2E concentration in the retinas compared with control pellets (Abca4−/− Rdh8−/− mice; HD pellets, not significant, p = 0.407) [%]	amount of ocular A2E compared with control pellets (Abca4−/− Rdh8−/− mice; LD pellets)	effect on IL-8 mRNA expression (IL-8)	lowest dose giving the maximal retinal neuroprotection and optimal preservation of visual functions [2] [mg/kg]	change of NF-κB transactivation induced by A2E (NF-κB) [%]	effect on IL-6 mRNA expression (IL-6 [3])
COC1CCCN(C(=O)/C=C/C(C)=C/C=C/C(C)=C/C=C/C=C(C)/C=C/C=C(C)\C=C\C(=O)O)C1 (centres unmarked) [BIO203]	entirely inhibits	−84.8	inhibited	−104.8	slightly inhibited	−21.7	did not differ significantly				
CC(=C/C=C/C(C)=C/C=C/C=C(C)/C=C/C=C(C)/C=C/C(=O)O)/C=C/C(=O)O [norbixin, 9′-cis-norbixin]								significantly reduced	50	−73	significantly reduced
